In patent US20220404341A1, “METHODS AND APPARATUS FOR MEASURING IMMUNE MEDIATED TUMOROID RESPONSES” (VITROSCAN B.V., priority 2019, published 2022):

What was measured:
Format in all cases: cell-based, human
ovarian cancer tumoroids = assay: ex vivo 3D patient derived tumour culture with 3D imaging, ovarian cancer samples; details: for area size of small objects: FIG. 5 (same sample as FIG. 4)
[1] = test system: patient derived tumour cultures; assay: Selection Factor (tumoroids' area decrease) across patient samples; details: for immune reaction reducing the number of tumour cells (Selection Factor metric across samples): FIGS. 8 and 9, alone or in combination, naïve patient sample; for Tumoroids' area decrease (%) as Selection Factor, effect when used alone: experiments shown in FIG. 8
[2] = test system: Mesothelioma tumour sample; assay: ex vivo 3D patient derived tumour culture with 3D imaging, mesothelioma sample; details: FIG. 3
IFN-γ = IFN-γ production in treated patient derived tumour cultures; details: FIG. 7; IFN-γ is secreted by activated T-cells
lung tumour sample = assay: ex vivo 3D patient derived tumour culture with 3D imaging, lung tumour sample; details: FIG. 6

Row | Compound | area size of small objects (ovarian cancer tumoroids; ovarian tumour sample) | immune reaction reducing the number of tumour cells (Selection Factor metric across samples) [1] | immune-mediated tumoroid killing effect [2] | IFN-γ production (IFN-γ) | activating native immune cells to kill tumoroids (total area of objects larger than 422 μm^2 and of objects smaller than 160 μm^2) (ovarian cancer tumoroids; ovarian cancer samples of FIG. 1, one-sided Wilcoxon test) | activating native immune cells to kill tumoroids (ovarian cancer tumoroids; ovarian cancer samples of FIG. 2) | immune-mediated tumoroid killing effect (lung tumour sample) | Tumoroids' area decrease (%) as Selection Factor, effect when used alone [1] | immune-mediated tumoroid killing effect (area size reduction of tumoroid clusters) (ovarian cancer tumoroids; ovarian tumour sample, FIG. 4)
1 | Nc1ncnc2c1ncn2[C@@H]1O[C@@H]2COP(=O)([S-])O[C@@H]3[C@H](O)[C@@H](COP([O-])(=S)O[C@H]2[C@H]1O)O[C@H]3n1cnc2c(N)ncnc21.[Na+].[Na+] (stereo partly shown) [ADU-S100] | area size increase of small objects |  |  |  |  |  |  |  | 
2 | O=C(c1cc(Cc2n[nH]c(=O)c3ccccc23)ccc1F)N1CCN(C(=O)C2CC2)CC1 [olaparib] |  | able to start an immune reaction that effectively reduced the number of tumour cells |  |  |  |  |  |  | 
3 | ipilimumab |  | able to start an immune reaction that effectively reduced the number of tumour cells | immune-mediated tumoroid killing effect | increased | effective in activating native immune cells to kill ovarian cancer tumoroids | does not show effectiveness in activating native immune cells to kill tumoroids | immune-mediated tumoroid killing effect |  | 
4 | nivolumab |  | able to start an immune reaction that effectively reduced the number of tumour cells |  |  |  |  | immune-mediated tumoroid killing effect | do not show any effect when used alone | 
5 | pembrolizumab | area size increase of small objects | able to start an immune reaction that effectively reduced the number of tumour cells |  |  |  |  | immune-mediated tumoroid killing effect | do not show any effect when used alone | immune-mediated tumoroid killing effect
